In patent US20190151312A1, “HEPARAN SULFATE BIOSYNTHESIS INHIBITORS FOR THE TREATMENT OF DISEASES” (BioMarin Pharmaceutical Inc., priority 2014, published 2019):
pIC50: −log10 of the molar value.

Each compound was assayed on GM01896 cells (MPS II dermal fibroblasts) (assay: Assay 1: MPS cellular assay, MPS II (heparan sulfate disaccharide biomarkers by LC-MS)). Settings: Assay 1 for MPS II, heparan sulfate disaccharide biomarkers (I2a4, I2a6, I2S0 and/or I2S6), read-out: IC50 Range.
Assay type: cell-based, human
How it was run: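 Heparan sulfate disaccharide biomarkers quantified by LC-MS after heparinase I/II/III digestion and isotopic aniline labelling, using GM01896 MPS II fibroblasts exposed to compound (at or below 30 μM, 4-21 days). Values given as IC50 by curve fitting; cell viability checked with alamar blue or ATP.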

Row | Compound | pIC50
1 | Cn1nc(N2CCCC2)c2ccc(-c3cc(Nc4ccc(Cl)cc4)nc(N4CCOCC4)n3)cc21 [(4-chlorophenyl)[6-(1-methyl-3-pyrrolidinyl(1H-indazol-6-yl))-2-morpholin-4-ylpyrimidin-4-yl]amine] | 5.30 to 6.00
2 | CN(C)CCCn1cnc2cc(-c3cc(Nc4ccc(Cl)cc4)nc(N4CCOCC4)n3)ccc21 [[3-(5-{6-[(4-chlorophenyl)amino]-2-morpholin-4-ylpyrimidin-4-yl}benzimidazolyl)propyl]dimethylamine] | 6.00 to 6.30
3 | Cn1ncc2ccc(-c3cc(Nc4ccc(-n5cccn5)cc4)nc(N4CCOCC4)n3)cc21 [[6-(1-methyl(1H-indazol-6-yl))-2-morpholin-4-ylpyrimidin-4-yl](4-pyrazolylphenyl)amine] | > 6.30

Same assay, conditions: Homo sapiens, Fibroblast, Assay 1 for MPS II, heparan sulfate disaccharide biomarkers (I2a4, I2a6, I2S0 and/or I2S6), read-out: IC50 Range

Row | Compound | pIC50
4 | Clc1ccc(Nc2cc(-c3ccc4cnn(CCCN5CCOCC5)c4c3)nc(N3CCOCC3)n2)cc1 [(4-chlorophenyl){2-morpholin-4-yl-6-[1-(3-morpholin-4-ylpropyl)(1H-indazol-6-yl)]pyrimidin-4-yl}amine] | 5.30 to 6.00
5 | Cn1cnc2ccc(-c3cc(Nc4ccc(S(N)(=O)=O)cc4)nc(N4CCOCC4)n3)cc21 [4-{[6-(1-methylbenzimidazol-6-yl)-2-morpholin-4-ylpyrimidin-4-yl]amino}benzenesulfonamide] | 5.30 to 6.00
6 | Cc1nncn1-c1ccc(Nc2cc(-c3ccc4cnn(C)c4c3)nc(N3CCOCC3)n2)cc1 [[4-(3-methyl(1,2,4-triazol-4-yl))phenyl][6-(1-methyl(1H-indazol-6-yl))-2-morpholin-4-ylpyrimidin-4-yl]amine] | 6.00 to 6.30
7 | CNC(=O)c1ccc(Nc2cc(-c3ccc4ncn(CCN5CCCC5)c4c3)nc(N3CCOCC3)n2)cc1 [N-methyl[4-({2-morpholin-4-yl-6-[1-(2-pyrrolidinylethyl)benzimidazol-6-yl]pyrimidin-4-yl}amino)phenyl]carboxamide] | 5.30 to 6.00
8 | Cc1nn(C)c2cc(-c3cc(Nc4ccc(C5=NCCO5)cc4)nc(N4CCOCC4)n3)ccc12 [[6-(1,3-dimethyl(1H-indazol-6-yl))-2-morpholin-4-ylpyrimidin-4-yl](4-(1,3-oxazolin-2-yl)phenyl)amine] | 5.30 to 6.00
9 | Cn1nc(CN2CCCC2)c2ccc(-c3cc(Nc4ccc(Cl)cc4)nc(N4CCOCC4)n3)cc21 [(4-chlorophenyl){6-[1-methyl-3-(pyrrolidinylmethyl)(1H-indazol-6-yl)]-2-morpholin-4-ylpyrimidin-4-yl}amine] | 6.00 to 6.30
10 | Cc1c[nH]nc1-c1ccc(Nc2cc(-c3ccc4cnn(C)c4c3)nc(N3CCOCC3)n2)cc1 [[6-(1-methyl(1H-indazol-6-yl))-2-morpholin-4-ylpyrimidin-4-yl][4-(4-methylpyrazolyl)phenyl]amine] | 5.30 to 6.00
11 | CNC(=O)c1ccc(Nc2cc(-c3ccc4ncn(C5CC5)c4c3)nc(N3CCOCC3)n2)cc1 [(4-{[6-(1-cyclopropylbenzimidazol-6-yl)-2-morpholin-4-ylpyrimidin-4-yl]amino}phenyl)-N-methylcarboxamide] | > 6.30
12 | Cc1cn(C)c2cc(Nc3cc(-c4ccc5c(CCN6CCOCC6)nn(C)c5c4)nc(N4CCOCC4)n3)ccc12 [(1,3-dimethylindol-6-yl){6-[1-methyl-3-(2-morpholin-4-ylethyl)(1H-indazol-6-yl)]-2-morpholin-4-ylpyrimidin-4-yl}amine] | 6.00 to 6.30
13 | Cc1ccc(Nc2cc(-c3ccc4c(CCN5CCOCC5)nn(C)c4c3)nc(N3CCOCC3)n2)cc1 [{6-[1-methyl-3-(2-morpholin-4-ylethyl)(1H-indazol-6-yl)]-2-morpholin-4-ylpyrimidin-4-yl}(4-methylphenyl)amine] | 6.00 to 6.30
14 | CNC(=O)c1ccc(Nc2cc(-c3ccc4cnn(CC5CC5)c4c3)nc(N3CCOCC3)n2)cc1 [[4-({6-[1-(cyclopropylmethyl)(1H-indazol-6-yl)]-2-morpholin-4-ylpyrimidin-4-yl}amino)phenyl]-N-methylcarboxamide] | > 6.30
15 | CN1CCN(c2nn(C)c3cc(-c4cc(Nc5ccc(Cl)cc5)nc(N5CCOCC5)n4)ccc23)CC1 [(4-chlorophenyl){6-[1-methyl-3-(4-methylpiperazinyl)(1H-indazol-6-yl)]-2-morpholin-4-ylpyrimidin-4-yl}amine] | 5.30 to 6.00
16 | Cc1nc2ccc(-c3cc(Nc4ccc(Cl)cc4)nc(N4CCOCC4)n3)cc2n1CCN1CCCC1 [(4-chlorophenyl){6-[2-methyl-1-(2-pyrrolidinylethyl)benzimidazol-6-yl]-2-morpholin-4-ylpyrimidin-4-yl}amine] | 5.30 to 6.00
17 | Cn1ncc2ccc(-c3cc(Nc4ccc5nnn(C)c5c4)nc(N4CCOCC4)n3)cc21 [[6-(1-methyl(1H-indazol-6-yl))-2-morpholin-4-ylpyrimidin-4-yl](1-methylbenzotriazol-6-yl)amine] | 5.30 to 6.00
18 | CNC(=O)c1ccc(Nc2cc(-c3ccc4ncn(CCOC)c4c3)nc(N3CCOCC3)n2)cc1 [[4-({6-[1-(2-methoxyethyl)benzimidazol-6-yl]-2-morpholin-4-ylpyrimidin-4-yl}amino)phenyl]-N-methylcarboxamide] | > 6.30
19 | Cc1nn(CCCN2CCOCC2)c2cc(-c3cc(Nc4ccc(Cl)cc4)nc(N4CCOCC4)n3)ccc12 [(4-chlorophenyl){6-[3-methyl-1-(3-morpholin-4-ylpropyl)(1H-indazol-6-yl)]-2-morpholin-4-ylpyrimidin-4-yl}amine] | 5.30 to 6.00

Row | Compound | pIC50
20 | CNC(=O)c1ccc(Nc2cc(-c3ccc4cnn(C5CC5)c4c3)nc(N3CCOCC3)n2)cn1 [(5-{[6-(1-cyclopropyl(1H-indazol-6-yl))-2-morpholin-4-ylpyrimidin-4-yl]amino}(2-pyridyl))-N-methylcarboxamide] | > 6.30
21 | Cn1cnc2ccc(Nc3cc(-c4ccc5cnn(C)c5c4)nc(N4CCOCC4)n3)cc21 [[6-(1-methyl(1H-indazol-6-yl))-2-morpholin-4-ylpyrimidin-4-yl](1-methylbenzimidazol-6-yl)amine] | 6.00 to 6.30
22 | Cn1nc(NCCCN2CCCC2)c2ccc(-c3cc(Nc4ccc(Cl)cc4)nc(N4CCOCC4)n3)cc21 [(4-chlorophenyl)(6-{1-methyl-3-[(3-pyrrolidinylpropyl)amino](1H-indazol-6-yl)}-2-morpholin-4-ylpyrimidin-4-yl)amine] | 5.30 to 6.00
23 | CCn1ccc2ccc(Nc3cc(-c4ccc5c(C)nn(C)c5c4)nc(N4CCOCC4)n3)cc21 [[6-(1,3-dimethyl(1H-indazol-6-yl))-2-morpholin-4-ylpyrimidin-4-yl](1-ethylindol-6-yl)amine] | 5.30 to 6.00
24 | Cc1nn(C)c2cc(-c3cc(Nc4cc(Cl)c5ccn(C)c5c4)nc(N4CCOCC4)n3)ccc12 [[6-(1,3-dimethyl(1H-indazol-6-yl))-2-morpholin-4-ylpyrimidin-4-yl](4-chloro-1-methylindol-6-yl)amine] | 5.30 to 6.00
25 | Clc1ccc(Nc2cc(-c3ccc4c(cnn4CCN4CCOCC4)c3)nc(N3CCOCC3)n2)cc1 [(4-chlorophenyl){2-morpholin-4-yl-6-[1-(2-morpholin-4-ylethyl)(1H-indazol-5-yl)]pyrimidin-4-yl}amine] | 5.30 to 6.00
26 | Cn1nc(CCCCO)c2ccc(-c3cc(Nc4ccc(Cl)cc4)nc(N4CCOCC4)n3)cc21 [4-(6-{6-[(4-chlorophenyl)amino]-2-morpholin-4-ylpyrimidin-4-yl}-1-methyl-1H-indazol-3-yl)butan-1-ol] | 5.30 to 6.00
27 | Cn1c(CCN2CCOCC2)nc2ccc(-c3cc(Nc4ccc(Cl)cc4)nc(N4CCOCC4)n3)cc21 [(4-chlorophenyl){6-[1-methyl-2-(2-morpholin-4-ylethyl)benzimidazol-6-yl]-2-morpholin-4-ylpyrimidin-4-yl}amine] | > 6.30
28 | Cn1cnc2ccc(-c3cc(Nc4ccc(Br)cc4)nc(N4CCOCC4)n3)cc21 [(4-bromophenyl)[6-(1-methylbenzimidazol-6-yl)-2-morpholin-4-ylpyrimidin-4-yl]amine] | 6.00 to 6.30
29 | Cn1ncc2ccc(-c3cc(Nc4ccc(-c5nnc(C(F)(F)F)[nH]5)cc4)nc(N4CCOCC4)n3)cc21 [[6-(1-methyl(1H-indazol-6-yl))-2-morpholin-4-ylpyrimidin-4-yl]{4-[5-(trifluoromethyl)(4H-1,2,4-triazol-3-yl)]phenyl}amine] | 5.30 to 6.00
30 | Cn1nc(CCN2CCOCC2)c2ccc(-c3cc(Nc4ccc5ccn(C6CC6)c5c4)nc(N4CCOCC4)n3)cc21 [(1-cyclopropylindol-6-yl) {6-[1-methyl-3-(2-morpholin-4-ylethyl)(1H-indazol-6-yl)]-2-morpholin-4-ylpyrimidin-4-yl}amine] | 5.30 to 6.00
31 | CCNC(=O)c1ccc(Nc2cc(-c3ccc4cnn(C)c4c3)nc(N3CCOCC3)n2)cc1 [N-ethyl(4-{[6-(1-methyl(1H-indazol-6-yl))-2-morpholin-4-ylpyrimidin-4-yl]amino}phenyl)carboxamide] | 6.00 to 6.30
32 | Cn1c(CCCN2CCOCC2)nc2ccc(-c3cc(Nc4ccc(Cl)cc4)nc(N4CCOCC4)n3)cc21 [(4-chlorophenyl){6-[1-methyl-2-(3-morpholin-4-ylpropyl)benzimidazol-6-yl]-2-morpholin-4-ylpyrimidin-4-yl}amine] | 5.30 to 6.00
33 | Cc1nc2cc(-c3cc(Nc4ccc(Cl)cc4)nc(N4CCOCC4)n3)ccc2n1CCN1CCOCC1 [(4-chlorophenyl){6-[2-methyl-1-(2-morpholin-4-ylethyl)benzimidazol-5-yl]-2-morpholin-4-ylpyrimidin-4-yl}amine] | 5.30 to 6.00
34 | Cn1nc(CCN2CCOCC2)c2ccc(-c3cc(Nc4ccc(-c5c[nH]cn5)cc4)nc(N4CCOCC4)n3)cc21 [(4-imidazol-4-ylphenyl){6-[1-methyl-3-(2-morpholin-4-ylethyl)(1H-indazol-6-yl)]-2-morpholin-4-ylpyrimidin-4-yl}amine] | 5.30 to 6.00
35 | Clc1ccc(Nc2cc(-c3ccc4cnn(C5CC5)c4c3)nc(N3CCOCC3)n2)cc1 [(4-chlorophenyl)[6-(1-cyclopropyl(1H-indazol-6-yl))-2-morpholin-4-ylpyrimidin-4-yl]amine] | 5.30 to 6.00
